In experiment [1] the target is T1, Melanin-concentrating hormone receptor 1 (Homo sapiens, UniProt Q99705). The experiment in a line: Displacement of [125I]MCH from human MCHR1 expressed in CHO cell membranes at 5 ug/ml. In general terms: Displacement assays read how much labelled ligand stays bound in the presence of the test substance.
The target of experiment [2] is T1, Melanin-concentrating hormone receptor 1. The experiment in a line: Displacement of [125I]MCH from human MCHR1 expressed in CHO cell membranes.

The structures appear in SMILES notation.

Our source for the inhibition and Ki values is ChEMBL document CHEMBL1140742, “Discovery of novel chemotypes to a G-protein-coupled receptor through ligand-steered homology modeling and structure-based virtual screening” (J Med Chem, 2008).

One may read the inhibition as the share of the control response that was lost under treatment. A high value points to a strong effect. What is called Ki is the dissociation constant of the complex between target and ligand, obtained from inhibition or displacement. Lower therefore signals tighter binding.

T1 sequence (Q99705 whole entry): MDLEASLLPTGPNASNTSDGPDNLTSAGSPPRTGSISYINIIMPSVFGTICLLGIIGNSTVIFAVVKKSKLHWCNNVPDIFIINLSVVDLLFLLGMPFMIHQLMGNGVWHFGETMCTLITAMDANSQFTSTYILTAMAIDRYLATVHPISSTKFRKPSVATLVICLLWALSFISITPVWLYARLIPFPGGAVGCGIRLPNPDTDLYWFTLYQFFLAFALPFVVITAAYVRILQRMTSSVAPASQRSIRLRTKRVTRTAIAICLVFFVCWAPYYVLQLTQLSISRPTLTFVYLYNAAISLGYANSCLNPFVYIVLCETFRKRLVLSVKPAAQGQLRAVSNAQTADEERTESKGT

Regarding `CCCn1c(-c2ccc(-c3ccccc3)cc2)c(C(C)=O)n2c3ccccc3nc12`, in experiment [1], the inhibition was determined as 18%.

Regarding `CC(C)N(CCCNC(=O)c1cc2sccc2n1C)Cc1ccccc1`, affinity in experiment [2] was put at a Ki of 20.9 µM.

In experiment [1], `COc1ccccc1Nc1nc(N)nc(CN(C)C2CCCCC2)n1` yielded an inhibition of 0%.

`Cc1ccccc1SCN(CCc1ccccc1)CSc1ccccc1C` came in with a Ki in experiment [2] of 7.5 µM.

For the compound `Cc1ccccc1Nc1nc(N)nc(CN(C)Cc2cccc(Cl)c2)n1`, the affinity in experiment [2], expressed as Ki, was 7.8 µM. This Ki and that of the compound before are within 1.5-fold of each other.

In experiment [2], `COc1ccc(/C=C2/SC(=S)N(CCCC(=O)OCCN(C)C)C2=O)cc1` gave a Ki of 8.1 µM.

In experiment [1], `Cc1ccc(S(=O)(=O)CN(CS(=O)(=O)c2ccc(C)cc2)c2ccc(Br)cc2F)cc1` had an inhibition of 10%.

In experiment [1], `COc1ccccc1CN(C(=O)c1cc2sccc2n1C)C1CC(C)(C)NC(C)(C)C1` came in with an inhibition of 3%.

Compound `COc1cc(CN(CCCn2ccnc2)C(=O)c2cc3sccc3n2C)cc(OC)c1` came in with an inhibition in experiment [1] of 0%.

`CCN(CC)Cc1cc(N=C2NS(=O)(=O)c3ccccc32)ccc1OC(=O)c1ccc(OC)cc1` had a Ki in experiment [2] of 11.3 µM.

In turn, `CCOc1ccc(Nc2nc(N)nc(CN(C)C3CCCCC3)n2)cc1` displayed an inhibition in experiment [1] of 3%.

For `Cc1ccc(S(=O)(=O)CN(Cc2ccccc2)CS(=O)(=O)c2ccc(C)cc2)cc1`, the affinity in experiment [2] corresponds to a Ki of 7.5 µM.

`CCOc1ccc(NC2=NS(=O)(=O)c3cc([N+](=O)[O-])ccc32)cc1` gave an inhibition in experiment [1] of 4%.

Regarding `COc1cc(C(=O)Oc2ccc(N(Cc3cccs3)C3=NS(=O)(=O)c4ccccc43)cc2)cc(OC)c1OC`, the inhibition in experiment [1] was determined as 10%.

Turning to `COc1ccc(-c2cn3c4ccccc4nc3n2CCCN2CCOCC2)cc1`, in experiment [1], the inhibition came out at 0%.

As for `CCOc1ccccc1Nc1nc(N)nc(CN(C)C2CCCCC2)n1`, in experiment [1], the inhibition was found to be 16%.

Compound `O=C(c1cc2sccc2n1Cc1ccc(F)cc1)N(CCCN1CCOCC1)Cc1cccnc1` showed an inhibition in experiment [1] of 44%.

For the compound `CCC(=O)Oc1ccc(NC2=NS(=O)(=O)c3ccccc32)cc1`, the inhibition in experiment [1] was determined as 31%.

Turning to `CCN(CC)CCCn1c(-c2ccc(Br)cc2)cn2c3ccccc3nc12`, the Ki in experiment [2] was 11.9 µM.

For the compound `O=C(Nc1ccccc1)c1c(-c2ccccc2)n(Cc2ccccc2)c2nc3ccccc3n12`, the inhibition in experiment [1] was determined as 15%.

`CCCCCCN(CS(=O)(=O)c1ccc(C)cc1)CS(=O)(=O)c1ccc(C)cc1` gave a Ki in experiment [2] of 1.7 µM.

Compound `COc1ccc(Nc2nc(N)nc(CN(C)C3CCCCC3)n2)cc1` registered an inhibition in experiment [1] of 0%.
